Patent US6713473B1, “Tricyclic compounds” (Meiji Seika Kaisha, Ltd., priority 1999, dated 2004)

Each molecule was assayed against T1, human Y5 receptor (Homo sapiens, UniProt Q15761) (assay: Y5 receptor binding inhibition test). Details: not given.
T1 sequence (Q15761 1-445): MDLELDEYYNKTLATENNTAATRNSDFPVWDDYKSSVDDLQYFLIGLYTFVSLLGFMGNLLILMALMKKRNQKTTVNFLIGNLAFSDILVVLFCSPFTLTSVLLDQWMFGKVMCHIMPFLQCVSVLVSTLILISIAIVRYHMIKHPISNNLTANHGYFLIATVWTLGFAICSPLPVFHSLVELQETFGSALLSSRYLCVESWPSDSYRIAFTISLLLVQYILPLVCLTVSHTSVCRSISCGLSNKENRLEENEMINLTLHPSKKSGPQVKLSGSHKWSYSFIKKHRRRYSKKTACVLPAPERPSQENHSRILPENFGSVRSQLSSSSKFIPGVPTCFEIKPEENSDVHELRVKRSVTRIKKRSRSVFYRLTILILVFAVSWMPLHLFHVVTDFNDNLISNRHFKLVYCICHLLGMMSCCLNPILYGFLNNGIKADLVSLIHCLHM
`CC(C)n1c2c(c3cc(NC(=O)N(CCO)CCO)ccc31)CCCC2` [Compound 6-2] was tested, and the “% Inhibition ratio (10 μM)” value was 86%. In the case of `CC(C)n1c2c(c3cc(NC(=O)NCCO)ccc31)CCCC2` [Compound 4-2], the “% Inhibition ratio (10 μM)” value is reported as 89%.

Same assay, conditions: 2 h, read-out: % Inhibition ratio (10 μM)
Molecule `CC(C)S(=O)(=O)NCCCCCNC(=O)c1ccc2c(c1)c1c(n2CCOCCO)CCCC1` [Compound 1-60] has an inhibition at 10 µM of 86%. `CCn1c2ccccc2c2cc(C(=O)NCCCCNS(=O)(=O)c3cccc4ccccc34)ccc21` [Compound 1-31] showed an inhibition at 10 µM of 94%. `CCn1c2ccccc2c2cc(NS(C)(=O)=O)ccc21` [Compound 3-8] showed an inhibition at 10 µM of 73%. Molecule `CC(C)n1c2ccccc2c2cc(C(=O)NCCCCCNS(=O)(=O)c3cccc4ccccc34)ccc21` [Compound 1-47] has an inhibition at 10 µM of 100%. With `CCn1c2ccccc2c2c(OC)c(C(=O)NCCCCCNS(=O)(=O)c3cccc4ccccc34)ccc21` [Compound 1-36] the inhibition at 10 µM was 92%. `CCn1c2ccccc2c2cc(C(=O)NCCCCCNC(=O)C34CC5CC(CC(C5)C3)C4)ccc21` [Compound 1-20] was tested, and the inhibition at 10 µM was 86%. With `CCn1c2ccccc2c2cc(C(=O)NCCCCCNC(=O)c3ccc4[nH]ccc4c3)ccc21` [Compound 1-25] the inhibition at 10 µM was 100%. Molecule `CCn1c2ccccc2c2cc(C(=O)NCCCCCCNS(=O)(=O)c3cccc4ccccc34)ccc21` [Compound 1-33] has an inhibition at 10 µM of 82%. Molecule `CCn1c2ccccc2c2cc(C(=O)NCCCCCNS(=O)(=O)c3cccc4c(N(C)C)cccc34)ccc21` [Compound 1-17] has an inhibition at 10 µM of 93%. `CC(C)n1c2c(c3cc(NC(=S)N(C)CCc4ccncc4)ccc31)CCCC2` [Compound 12-3] gave an inhibition at 10 µM of 97%. With `CCn1c2ccccc2c2cc(C(=O)NC3CCC(CNS(=O)(=O)c4cccc5ccccc45)CC3)ccc21` (centres unmarked) [Compound 1-35] the inhibition at 10 µM was 75%. `CCn1c2ccccc2c2cc(C(=O)NCCCCCNC(=O)c3ccc4[nH]nnc4c3)ccc21` [Compound 1-26] was tested, and the inhibition at 10 µM was 82%. `CCn1c2ccccc2c2cc(C(=O)NCCCCCNS(=O)(=O)c3cccc4ccccc34)c(O)cc21` [Compound 1-42] gave an inhibition at 10 µM of 74%. For `COCCn1c2c(c3cc(C(=O)NCCOCCNS(C)(=O)=O)ccc31)CCCC2` [Compound 1-53], the inhibition at 10 µM was 66%. Work on `CCn1c2ccccc2c2cc(NC(=O)CCCCCNC(=O)c3cccnc3)ccc21` [Compound 1-8] yielded an inhibition at 10 µM of 100%. Work on `CCCS(=O)(=O)NCCCCCNC(=O)c1ccc2c(c1)c1ccccc1n2CC` [Compound 1-11] yielded an inhibition at 10 µM of 103%. With `Cn1c2ccccc2c2cc(C(=O)NCCCCCNS(=O)(=O)c3cccc4ccccc34)ccc21` [Compound 1-46] the inhibition at 10 µM was 102%. Work on `CC(C)S(=O)(=O)NCCCCCNC(=O)c1ccc2c(c1)c1c(n2CC(N)=O)CCCC1` [Compound 1-61] yielded an inhibition at 10 µM of 77%. For `CCn1c2ccccc2c2cc(C(=O)NCCCCCNS(=O)(=O)c3cccc4cccnc34)ccc21` [Compound 1-16], the inhibition at 10 µM was 94%. `CC(C)n1c2c(c3cc(NC(=O)CCCCCNS(=O)(=O)c4cccc5ccccc45)ccc31)CCCC2` [Compound 1-9] was tested, and the inhibition at 10 µM was 100%. Work on `CCn1c2ccccc2c2cc(C(=O)NCCCCCNS(=O)(=O)c3cccnc3)ccc21` [Compound 1-57] yielded an inhibition at 10 µM of 89%. Work on `CCn1c2ccccc2c2cc(C(=O)NCCCCCNC(=O)c3cccnc3)ccc21` [Compound 1-23] yielded an inhibition at 10 µM of 77%. Work on `CCn1c2c(c3cc(C(=O)NCCOCCNS(=O)(=O)C(C)C)ccc31)CCCC2` [Compound 1-52] yielded an inhibition at 10 µM of 88%. `CCn1c2c(c3cc(C(=O)NCCCCCNS(=O)(=O)c4cccc5ccccc45)c(O)cc31)CCCC2` [Compound 1-43] showed an inhibition at 10 µM of 54%. Molecule `CCn1c2ccccc2c2cc(C(=O)NCCCCCNS(=O)(=O)c3cccc4ccccc34)ccc21` [Compound 1-32] has an inhibition at 10 µM of 97%. `CCn1c2ccccc2c2cc(NC(=O)CCCCNS(=O)(=O)c3ccc4ccccc4c3)ccc21` [Compound 1-6] showed an inhibition at 10 µM of 93%. Molecule `CCCCCCCCS(=O)(=O)NCCCCCNC(=O)c1ccc2c(c1)c1ccccc1n2CC` [Compound 1-12] has an inhibition at 10 µM of 77%. In the case of `CCn1c2ccccc2c2cc(C(=O)NCCSCCNS(=O)(=O)c3cccc4ccccc34)ccc21` [Compound 1-27], the inhibition at 10 µM is reported as 96%. Work on `COCCn1c2c(c3cc(C(=O)NCCOCCNS(=O)(=O)c4cccnc4)ccc31)CCCC2` [Compound 1-58] yielded an inhibition at 10 µM of 66%. For `CCOc1c(C(=O)NCCCCCNS(=O)(=O)c2cccc3ccccc23)ccc2c1c1c(n2CC)CCCC1` [Compound 1-40], the inhibition at 10 µM was 91%. Work on `CCn1c2ccccc2c2cc(NC(=O)CCCCCNS(=O)(=O)c3cccc4cccnc34)ccc21` [Compound 1-7] yielded an inhibition at 10 µM of 100%. `CC(C)S(=O)(=O)NCCCCCNC(=O)c1ccc2c(c1)c1c(n2CCO)CCCC1` [Compound 1-59] gave an inhibition at 10 µM of 93%. In the case of `CCn1c2ccccc2c2cc(C(=O)NCCCCCNS(=O)(=O)c3ccccc3)ccc21` [Compound 1-15], the inhibition at 10 µM is reported as 111%. `CCn1c2ccccc2c2cc(C(=O)NCCCCCNS(=O)(=O)C(C)C)ccc21` [Compound 1-13] was tested, and the inhibition at 10 µM was 109%. For `CCn1c2c(c3cc(NC(C)=O)ccc31)CCCC2` [Compound 3-1], the inhibition at 10 µM was 88%. `CCn1c2ccccc2c2cc(C(=O)NCCCCCNS(=O)(=O)c3ccc4ccccc4c3)ccc21` [Compound 1-14] was tested, and the inhibition at 10 µM was 106%. In the case of `CCn1c2ccccc2c2cc(C(=O)NCCCCCNC(=O)c3cccc4ccccc34)ccc21` [Compound 1-22], the inhibition at 10 µM is reported as 89%. For `CCn1c2ccccc2c2cc(C(=O)NCCN(C)CCNS(=O)(=O)c3cccc4ccccc34)ccc21` [Compound 1-30], the inhibition at 10 µM was 99%. `CCn1c2ccccc2c2cc(C(=O)NC(C)CCCCNS(=O)(=O)c3cccc4ccccc34)ccc21` (centres unmarked) [Compound 1-34] gave an inhibition at 10 µM of 88%. With `CCn1c2ccccc2c2cc(C(=O)NCCCCCNC(=O)c3ccccc3)ccc21` [Compound 1-21] the inhibition at 10 µM was 97%. `CCn1c2ccccc2c2cc(NC(=O)CCCNS(=O)(=O)c3cccc4ccccc34)ccc21` [Compound 1-5] showed an inhibition at 10 µM of 98%.

Same assay, conditions: test compound 10 μM; 3H-NPY; membrane of insect cells expressing human Y5 receptor; 4° C., 2 hours; relative to Y5 specific binding in solvent group
With `CC(C)n1c2c(c3cc(NC(=O)N(C)CCOCCO)ccc31)CCCC2` [Compound 5-10] the “% Inhibition ratio (10 μM)” value was 104%. With `CC(C)n1c2c(c3cc(NC(=O)N4CCOCC4)ccc31)CCCCC2` [Compound 11-4] the “% Inhibition ratio (10 μM)” value was 97%. `CC(C)n1c2c(c3cc(NC(=O)N4CCOCC4)ccc31)CCCC2` [Compound 8-4] was tested, and the “% Inhibition ratio (10 μM)” value was 98%. With `CC(C)n1c2c(c3cc(NC(=O)N(C)CC4CCCO4)ccc31)CCCC2` (centres unmarked) [Compound 5-13] the “% Inhibition ratio (10 μM)” value was 98%. With `CC(C)n1c2c(c3cc(NC(=O)N4CCC(O)CC4)ccc31)CCCC2` [Compound 7-7] the “% Inhibition ratio (10 μM)” value was 97%. In the case of `N#CCn1c2c(c3cc(NC(=O)N4CCOCC4)ccc31)CCCC2` [Compound 8-10], the “% Inhibition ratio (10 μM)” value is reported as 78%. In the case of `CC(C)n1c2c(c3cc(NC(=O)N4CCC(O)C4)ccc31)CCCC2` (centres unmarked) [Compound 7-4], the “% Inhibition ratio (10 μM)” value is reported as 90%. For `CC(C)n1c2c(c3cc(NC(=O)N(C)CCCn4ccnc4)ccc31)CCCC2` [Compound 5-22], the “% Inhibition ratio (10 μM)” value was 100%. In the case of `O=C(Nc1ccc2c(c1)c1c(n2CC2CC2)CCCC1)N1CCOCC1` [Compound 8-7], the “% Inhibition ratio (10 μM)” value is reported as 100%. In the case of `CC(C)n1c2c(c3cc(NC(=O)N(C)CCc4cccnc4)ccc31)CCCC2` [Compound 5-19], the “% Inhibition ratio (10 μM)” value is reported as 100%. In the case of `CC(C)n1c2c(c3cc(NC(=O)N(C)Cc4ccncc4)ccc31)CCCC2` [Compound 5-17], the “% Inhibition ratio (10 μM)” value is reported as 100%. `COCCN(CCOC)C(=O)Nc1ccc2c(c1)c1c(n2C(C)C)CCCC1` [Compound 6-3] was tested, and the “% Inhibition ratio (10 μM)” value was 102%. `COCCCCN(C)C(=O)Nc1ccc2c(c1)c1c(n2C(C)C)CCCC1` [Compound 5-7] was tested, and the “% Inhibition ratio (10 μM)” value was 100%. For `CC(C)n1c2c(c3cc(NC(=O)N(C)CC(O)CO)ccc31)CCCC2` (centres unmarked) [Compound 5-26], the “% Inhibition ratio (10 μM)” value was 108%. In the case of `CC(C)n1c2c(c3cc(NC(=O)N(C)CCc4ccccn4)ccc31)CCCC2` [Compound 5-18], the “% Inhibition ratio (10 μM)” value is reported as 100%. `CC(C)n1c2c(c3cc(NC(=O)N(C)CCc4ccncc4)ccc31)CCC2` [Compound 10-3] was tested, and the “% Inhibition ratio (10 μM)” value was 95%. For `CC(C)Cn1c2c(c3cc(NC(=O)N4CCOCC4)ccc31)CCCC2` [Compound 8-6], the “% Inhibition ratio (10 μM)” value was 100%. With `CC(C)n1c2c(c3cc(NC(=O)N4CCN(C)CC4)ccc31)CCCC2` [Compound 7-19] the “% Inhibition ratio (10 μM)” value was 75%. With `CCn1c2c(c3cc(NC(=O)N4CCOCC4)ccc31)CCCC2` [Compound 8-2] the “% Inhibition ratio (10 μM)” value was 95%. With `CC(C)n1c2c(c3cc(NC(=O)N4CCCCC4CO)ccc31)CCCC2` (centres unmarked) [Compound 7-9] the “% Inhibition ratio (10 μM)” value was 91%. `CC(C)n1c2c(c3cc(NC(=O)N(C)CCc4ccncc4)ccc31)CCCCC2` [Compound 11-3] was tested, and the “% Inhibition ratio (10 μM)” value was 100%. With `CC(C)n1c2c(c3cc(NC(=O)N(C)CCc4ccncc4)ccc31)CCCC2` [Compound 5-20] the “% Inhibition ratio (10 μM)” value was 103%. With `CC(C)n1c2c(c3cc(NC(=O)N(C)C4CCCCC4)ccc31)CCCC2` [Compound 5-11] the “% Inhibition ratio (10 μM)” value was 97%. With `CC(C)n1c2c(c3cc(NC(=O)N4CCC[C@H]4CO)ccc31)CCCC2` [Compound 7-5] the “% Inhibition ratio (10 μM)” value was 100%. `CC(C)n1c2c(c3cc(NC(=O)N(C)CCCN(C)C)ccc31)CCCC2` [Compound 5-5] was tested, and the “% Inhibition ratio (10 μM)” value was 82%. In the case of `CC(C)n1c2c(c3cc(NC(=O)N(C)CCSc4ncc[nH]4)ccc31)CCCC2` [Compound 5-25], the “% Inhibition ratio (10 μM)” value is reported as 101%. In the case of `CC(C)n1c2c(c3cc(NC(=O)N4CCN(c5ncccn5)CC4)ccc31)CCCC2` [Compound 7-21], the “% Inhibition ratio (10 μM)” value is reported as 80%. For `CC(C)n1c2c(c3cc(NC(=O)N4CCCCC4CCO)ccc31)CCCC2` (centres unmarked) [Compound 7-11], the “% Inhibition ratio (10 μM)” value was 95%.
